Patent publication US20070134178A1, “Skin lightening complex” (priority 2005, published 2007)

Columns and labels:
[1] = about 20% HQ in the complex, solvent mixture of two solvents of different polarity index
Text: Although the melanin-inhibiting effectiveness of HQ is desirable, water-based formulations containing high concentration HQ are difficult to prepare due to limitations in its solubility.

[2] = 25° C; cited from earlier work

## Oc1ccc(O)cc1 [HQ, 1,4-benzenediol]
[1]
  times more HQ dissolved in the solvent mixture than in aqueous media: about 38.5 times
[2]
  HQ solubility in aqueous media: up to 7.3 g/L
